Data on eight molecules can be found in ChEMBL document CHEMBL1201862, “PubChem BioAssay data set” (2004).

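Growth conditions: 96-well plates. Treatment: test compound, 48 hours, 5 concentrations. Analysis: linear interpolation between bracketing concentrations; unreached endpoints set to highest concentration. At the GI50, growth is halved.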 Calls of active or inactive are those of the source. Cut-off read from the data, not from the text of the source: active = GI50 up to about 1.1 µM and inactive = higher.

Among the test systems are SW-620; HT-29; HCT-15; SF-268; SNB-19; A498; NCI-H460; EKVX; TK-10; COLO 205; OVCAR-8; DU-145; UACC-62; SK-MEL-5; PC-3; T47D; M14; OVCAR-4; SF-295.
Test in all cases: growth of human tumour cells (NCI), 48 h

Turning to `COc1cc(C(=O)Oc2c(C(C)=O)sc3c2c(=O)n(-c2ccccc2)c(=S)n3-c2ccccc2)cc(OC)c1OC`, the GI50 with SW-620 is 25.2 µM (inactive); in the test with HT-29, 11 µM (inactive); in the test on HCT-15 it was 22.2 µM; in the test with SF-268, 24.5 µM (inactive); with SNB-19, 24.7 µM (inactive); in the test on A498 it was 5.78 µM (inactive). The GI50 with NCI-H460 is 12.6 µM (inactive); with EKVX, 18.7 µM (inactive); with TK-10, 38.9 µM (inactive); in the test on COLO 205 it was 15.7 µM (inactive); in the test on OVCAR-8, 18.8 µM (inactive); in the test with DU-145, 26.4 µM (inactive). For the same molecule, the GI50 with UACC-62 was 23.9 µM (inactive); in the test with SK-MEL-5, 17.4 µM (inactive); in the test with PC-3, 18.2 µM (inactive); in the test with T47D, 26.5 µM (inactive); in the test with M14, 16.9 µM (inactive); in the test on OVCAR-4 it was 24.5 µM (inactive). The GI50 with SF-295 is 8.3 µM (inactive).
Consider `C=C(C(N)=O)c1ccc([N+](=O)[O-])o1`, for which the GI50 with SW-620 was 5.81 µM (inactive); with HT-29 it was 11.9 µM (inactive); with HCT-15, 9.02 µM; in the test with SF-268, 8.36 µM (inactive); with SNB-19, 37.1 µM (inactive); in the test on A498, 12.6 µM (inactive). Also, the GI50 with NCI-H460 was 19.9 µM (inactive); in the test with EKVX, 18.1 µM (inactive); with TK-10, 14.1 µM (inactive); with COLO 205, 3.31 µM (inactive); with OVCAR-8, 2.9 µM (inactive); in the test with DU-145, 11.4 µM (inactive). Further, the GI50 with UACC-62 was 7.03 µM (inactive); in the test with SK-MEL-5 it was 5.74 µM (inactive); in the test with PC-3, 30.7 µM (inactive); with T47D, 20.5 µM (inactive); with M14, 2.82 µM (inactive); in the test with OVCAR-4 it was 11.6 µM (inactive). Also, the GI50 in the test on SF-295 is 42 µM (inactive).
With `CCCn1c(SC)nc(COC(=O)NC)c1COC(=O)NC`, the GI50 in the test on SW-620 was > 100 µM (inactive); in the test with HT-29 it was > 100 µM (inactive); with HCT-15, greater than 100 µM; in the test with SF-268, > 100 µM (inactive); in the test on SNB-19, > 100 µM (inactive); in the test on A498, 64 µM (inactive). For the same molecule, the GI50 in the test with NCI-H460, in the test on EKVX, with TK-10, with COLO 205, with OVCAR-8 and with DU-145 was > 100 µM (inactive) each time. Besides, the GI50 with UACC-62, in the test on SK-MEL-5, in the test with PC-3, with T47D, in the test on M14 and in the test with OVCAR-4 was > 100 µM (inactive) throughout. Further, the GI50 in the test on SF-295 was > 100 µM (inactive).
`CC[C@@H]([C@H](O)c1ccccc1Cl)[N+](=O)[O-]`: the GI50 in the test with SW-620 was 42.9 µM (inactive); in the test with HT-29, > 100 µM (inactive); in the test on HCT-15 it was 1.33 µM; in the test with SF-268, > 100 µM (inactive); with SNB-19 it was > 100 µM (inactive); in the test with A498, > 100 µM (inactive). Besides, the GI50 with NCI-H460, with EKVX, in the test on TK-10, in the test with COLO 205, in the test with OVCAR-8 and with DU-145 was > 100 µM (inactive) throughout. For the same molecule, the GI50 is > 100 µM (inactive) with UACC-62; > 100 µM (inactive) in the test with SK-MEL-5; 61.4 µM (inactive) in the test on PC-3; > 100 µM (inactive) with T47D; > 100 µM (inactive) with M14; > 100 µM (inactive) in the test with OVCAR-4. Besides, in the test on SF-295, the GI50 was > 100 µM (inactive).
In the case of `CC(=O)O[C@H]1C(=O)[C@@]2(C)[C@H]([C@H](OC(=O)c3ccoc3)[C@]3(O)C[C@H](OC(=O)[C@H](O)[C@@H](NC(=O)c4ccccc4)c4ccccc4)C(C)=C1C3(C)C)[C@]1(OC(C)=O)CO[C@@H]1C[C@@H]2O`, the GI50 was 0.0448 µM (active) with SW-620; 0.0307 µM (active) in the test with HT-29; 4.24 µM in the test with HCT-15; 0.0583 µM (active) in the test with SF-268; 0.145 µM (active) in the test on SNB-19; 0.811 µM (active) in the test with A498. In addition, the GI50 was 0.0524 µM (active) with NCI-H460; > 9.59 µM (inactive) in the test with EKVX; > 2.99 µM (inactive) with TK-10; 0.0515 µM (active) with COLO 205; 0.0798 µM (active) with OVCAR-8; 0.352 µM (active) in the test on DU-145. Also, the GI50 in the test with UACC-62 was 0.053 µM (active); in the test with SK-MEL-5, 0.0467 µM (active); in the test on PC-3 it was 0.053 µM (active); in the test with T47D, 0.0461 µM (active); in the test on M14, 0.129 µM (active); in the test with OVCAR-4, > 12.5 µM (inactive). Further, the GI50 in the test with SF-295 was 0.582 µM (active).
In the case of `Cc1cc(C)c2c(=O)n(CC(O)CN3CCN(CCOCCO)CC3)sc2n1` (configuration not stated), the GI50 in the test on SW-620 was 25.6 µM (inactive); in the test on HT-29, 19.1 µM (inactive); in the test on HCT-15, 42.1 µM; in the test with SF-268, 20.8 µM (inactive); in the test on SNB-19, 36.5 µM (inactive); in the test on A498, 21.9 µM (inactive). Moreover, the GI50 in the test with NCI-H460 was 20.2 µM (inactive); with EKVX, 18.7 µM (inactive); with TK-10 it was 17.5 µM (inactive); with COLO 205, 17.7 µM (inactive); in the test on OVCAR-8 it was 19.9 µM (inactive); with DU-145 it was 30.2 µM (inactive). The GI50 in the test on UACC-62 was 18.7 µM (inactive); with SK-MEL-5 it was 15.1 µM (inactive); in the test with PC-3, 18.7 µM (inactive); with T47D it was 19.1 µM (inactive); in the test on M14, 17.8 µM (inactive); in the test on OVCAR-4, 17.9 µM (inactive). Also, the GI50 in the test with SF-295 was > 100 µM (inactive).
Consider `Cc1ccc2c(c1)C(=O)N1CCC[C@H]1C=N2`, for which the GI50 in the test with SW-620 was 23.4 µM (inactive); with HT-29, 15.4 µM (inactive); with HCT-15, 28.5 µM; in the test on SF-268, 31.3 µM (inactive); with SNB-19 it was 28.2 µM (inactive); with A498, 34 µM (inactive). Besides, the GI50 was 20.4 µM (inactive) in the test on NCI-H460; 26.4 µM (inactive) in the test on EKVX; 20.5 µM (inactive) with TK-10; 17.6 µM (inactive) in the test with COLO 205; 23.9 µM (inactive) with OVCAR-8; 7.78 µM (inactive) in the test with DU-145. Also, the GI50 with UACC-62 is 16.6 µM (inactive); in the test on SK-MEL-5 it was 11.1 µM (inactive); in the test on PC-3 it was 17.7 µM (inactive); in the test on T47D, 18.4 µM (inactive); with M14, 16.9 µM (inactive); in the test with OVCAR-4 it was 19.4 µM (inactive). For the same molecule, the GI50 in the test on SF-295 is 31.3 µM (inactive).
Take `O=C(c1c(Cl)cc(Cl)cc1Cl)N(Cc1cccnc1)C(=S)N(Cc1cccnc1)C(=O)c1c(Cl)cc(Cl)cc1Cl`: the GI50 was 4.14 µM (inactive) in the test on SW-620; 2.97 µM (inactive) with HT-29; 3.05 µM with HCT-15; 6.97 µM (inactive) in the test with SF-268; 20.2 µM (inactive) with SNB-19; 23.8 µM (inactive) in the test on A498. For the same molecule, the GI50 is 13.4 µM (inactive) in the test on NCI-H460; 15.5 µM (inactive) with EKVX; 3.93 µM (inactive) with TK-10; 4.73 µM (inactive) in the test with COLO 205; 4.04 µM (inactive) in the test on OVCAR-8; 4.62 µM (inactive) in the test on DU-145. The GI50 in the test on UACC-62 was 15.1 µM (inactive); with SK-MEL-5, 10.9 µM (inactive); with PC-3 it was 5.96 µM (inactive); in the test on T47D, 14.4 µM (inactive); with M14 it was 4.82 µM (inactive); in the test on OVCAR-4, 2.19 µM (inactive). The GI50 in the test on SF-295 was 19.4 µM (inactive).
